Results from patent US20020082391A1, “Human occludin, its uses and enhancement of drug absorption using occludin inhibitors” (priority 1996, published 2002).

T1: human occludin (human, UniProt Q16625 1-522)
T1 sequence: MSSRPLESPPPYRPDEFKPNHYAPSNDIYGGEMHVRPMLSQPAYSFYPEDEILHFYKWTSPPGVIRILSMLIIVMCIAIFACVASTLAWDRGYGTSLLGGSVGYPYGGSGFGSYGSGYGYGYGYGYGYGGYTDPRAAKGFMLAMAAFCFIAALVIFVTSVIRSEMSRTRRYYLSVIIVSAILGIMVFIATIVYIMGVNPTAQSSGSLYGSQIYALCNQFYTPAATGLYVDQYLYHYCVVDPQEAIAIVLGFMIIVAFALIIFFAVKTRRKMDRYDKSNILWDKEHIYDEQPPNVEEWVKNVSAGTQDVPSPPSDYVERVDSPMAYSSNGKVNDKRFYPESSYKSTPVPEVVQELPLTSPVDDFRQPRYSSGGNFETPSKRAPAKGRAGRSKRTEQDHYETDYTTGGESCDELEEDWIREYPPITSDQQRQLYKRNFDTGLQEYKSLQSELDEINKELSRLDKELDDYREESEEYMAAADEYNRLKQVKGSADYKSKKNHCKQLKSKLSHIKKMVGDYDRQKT


Assays:
[1] = tested on: occludin-transfected fibroblasts (NRK cell clone, N2occ cells); experiment: Cell adhesion (suspended cell aggregation) assay, occludin-transfected NRK fibroblasts (N2occ); assay type: cell-based, rat; details: for inhibition of occludin-induced adhesion: NRK cell clone, peptide at 100 μM, 80 minutes
Procedure: Peptides were added in equal volumes of PBS at the start of the incubation period; extent of aggregation is shown after 80 minutes of incubation. Loop peptides represent contiguous sequences in the first extracellular loop; the internal peptide has the same pI as loop peptide #1. Peptide sequences are given in the Examples section. One of three experiments with identical results is shown.
For immunofluorescent localization studies, cells were grown on glass coverslips. […] MDCK cells were transfected and induced with sodium butyrate as described above and stable cells lines were plated and induced as described for immunoblots. Cells were washed with PBS, fixed in 1% paraformaldehyde in PBS, extracted with 0.1% Triton-X 100 and quenched with 50 mM NH4Cl in PBS. In experiments to test the accessibility to the anti-peptide #1 antibody, incubation of the primary antibody was performed without permeabilization of cells with Triton-X 100. Cells were blocked for 1 hour in PBS plus 2% goat serum, incubated in primary antibodies (anti-VSV-G at 10 ug/ml, guinea pig anti-occludin at 1:250, and anti-ZO-1 at 1:300; affinity-purified anti-peptide #1 antibody at 1:10) for 1 hour, washed and incubated in affinity-purified secondary antibodies (1:100) for 1 hour. Cells were washed, dipped in H2O and mounted in Vectashield (Vector Laboratories). The samples were examined with a Nikon Microfot-FX epifluorescence microscope; photographs were taken with TMAX400 film (Kodak, Rochester, NY) using the automatic exposure setting. Cell Adhesion Assay Adhesion of stably transfected cell lines was measured by a modification of the procedure described by Wesseling, J., et al., Mol. Biol. Cell 7:565-577 (1996). Cell lines were plated and induced with sodium butyrate as described above. Cell layers were rinsed twice with Ca^2+-Mg^2+-free PBS and then incubated for 30 minutes in Ca^2+-Mg^2+-free PBS plus 1 mM EDTA and 0.1 mg/ml DNAse. After 30 minutes, cells were mechanically dissociated, counted and resuspended at a concentration of 2.5×10^5 cells/ml in Ca^2+-Mg^2+-free PBS, 1 mM EDTA and 0.1 mg/ml DNAse. For each condition, the adhesion assay was performed in duplicate in two 50-ml conical tubes on a rotating platform at 80 rpm at 25° C. At each time point, the number of particles in two 175 ul aliquot of each tube was determined in a Coulter Counter (Hialeah, FL). The amount of adhesion was represented by Nt/N0, where N0 was the initial number of particles in each sample (the starting number of single cells), and Nt was the number at each time point. 100% of cells were single at the beginning of all assays, as determined by phase-contrast microscopy. Some experiments were performed in the presence of the peptides described above.
The ability of transfected occludin to confer adhesion onto fibroblast cell lines was assessed using a suspended cell aggregation assay (Wesseling, J., et al., Mol. Biol. Cell 7: 565-577 (1996)). All cells were counted as single particles at the beginning of the assay and any decrease in the fraction of particles over the 80 minute assay was the result of aggregates which are excluded by the Coulter Counter. Aggregation was qualitatively confirmed by light microscopic inspection and correlated with results quantified by the Coulter Counter. Immunofluorescence confirmed that ZO-1 and occludin are clustered between adherent cells after the 80 minute assay. […]

[2] = tested on: occludin-transfected fibroblasts (Rat-1 cell clone); experiment: Cell adhesion (suspended cell aggregation) assay, occludin-transfected Rat-1 fibroblasts; assay type: cell-based; details: peptide at 100 μM
Procedure: For immunofluorescent localization studies, cells were grown on glass coverslips. […] MDCK cells were transfected and induced with sodium butyrate as described above and stable cells lines were plated and induced as described for immunoblots. Cells were washed with PBS, fixed in 1% paraformaldehyde in PBS, extracted with 0.1% Triton-X 100 and quenched with 50 mM NH4Cl in PBS. In experiments to test the accessibility to the anti-peptide #1 antibody, incubation of the primary antibody was performed without permeabilization of cells with Triton-X 100. […] Cell Adhesion Assay Adhesion of stably transfected cell lines was measured by a modification of the procedure described by Wesseling, J., et al., Mol. Biol. Cell 7:565-577 (1996). […] After 30 minutes, cells were mechanically dissociated, counted and resuspended at a concentration of 2.5×10^5 cells/ml in Ca^2+-Mg^2+-free PBS, 1 mM EDTA and 0.1 mg/ml DNAse. […] At each time point, the number of particles in two 175 ul aliquot of each tube was determined in a Coulter Counter (Hialeah, FL). […] 100% of cells were single at the beginning of all assays, as determined by phase-contrast microscopy. […]
The ability of transfected occludin to confer adhesion onto fibroblast cell lines was assessed using a suspended cell aggregation assay (Wesseling, J., et al., Mol. Biol. Cell 7: 565-577 (1996)). […]

[3] = tested on: Caco-2 cells; experiment: Transepithelial electrical resistance of Caco-2 monolayers after low calcium medium; assay type: cell-based, human; details: Caco-2, peptides at final concentration 100 μM, FIG. 2
Procedure: FIG. 2 is a graph showing inhibition of occludin-dependent intercellular adhesion using extracellular loop peptides corresponding to the N-terminal half of occludin extracellular loop #1 (peptide 1, SEQ ID NO 3) and the C-terminal half of extracellular loop #1 (peptide 2, SEQ ID NO 4) compared with an irrelevant peptide (peptide 3, SEQ ID NO 6). Caco-2 cells were plated on Falcon transwell cell culture inserts in DMEM supplemented with 10% fetal bovine serum and allowed to attach for 24 hours. Confluent monolayers were washed three times with calcium- and magnesium-free phosphate buffered saline and incubated in low calcium medium (supplemented with 5% dialyzed fetal bovine serum) for 24 hours. Transepithelial electrical ressitance was measured (time 0) and an equal volume of 2× DMEM/20% fetal bovine serum was added to all wells. To some wells, peptides were added with the fresh media. All peptides were added to a final concentration of 100 μM; transepithelial electrical resistance was measured in 3 wells of each treatment condition. Symbols represent the mean and standard deviation of each measurement.
Introduction of occludin into fibroblasts causes them to become adhesive. […] FIG. 2 provides data showing this same peptide inhibits transmonolayer electrical resistance in cultured human colonic epithelial cells. Thus, the peptides are occludin inhibitors.

[4] = molecular target: T1, human occludin; experiment: cell-based or functional assay

Molecule	inhibition of occludin-induced adhesion [1]	reversal of adhesion ([1]; peptide at 10 μM)	inhibition of occludin-induced adhesion [2]	inhibition of transepithelial (transmonolayer) electrical resistance [3]	Ki ([1]; fibroblast adhesion assay, peptides tested at 1, 10 and 100 μM, read-out: apparent Ki (inhibition of adhesion))	inhibiting occludin-dependent cell adhesion ([1]; same concentration range (1, 10 and 100 μM))	apparent Ki for inhibition of occludin-induced adhesion [4]
CDRGYGTSLLGGSVGYPYGGSGFG [peptide #1]	completely inhibited adhesion	approximately half	completely inhibited adhesion	inhibition			
CSYGSGYGYGYGYGYGYGGYTDPR [peptide #2]	completely inhibited adhesion		completely inhibited adhesion	inhibition	10 to 100 µM		
NHYAPSNDIYGGEMVHRPML (peptide construct used in experiments) [internal occludin peptide, reference compound]						ineffective	
CDRGYGTSLLGGSVGYPYGGSGFG [peptide #1 (N-terminal half of occludin extracellular loop #1)]							~10 µM
